Source: patent US11123426B2, “Use of vista agonists and antagonists to suppress or enhance humoral immunity” (THE TRUSTEES OF DARTMOUTH COLLEGE, priority 2014, dated 2021)

How the values were obtained:
Format in all cases: cell-based, mice
Ly6C+CD11b+ MDSCs [1] = experiment: 3H-thymidine proliferation assay: MDSC suppression of B-cell responsiveness with VISTA−/− responder spleen cells (α-CD40 and IL-4); settings: FIG. 5A
Protocol: (§1) 3H-Thymidine incorporation proliferation assays. For responder cells, 5×10^5 non-infected spleen cells, which were either non-fractionated or CD19+ purified, were plated into 96 well flat bottom plates along with 1.6×105 (unless otherwise indicated) CD11b+Ly6G+, or CD11b+Ly6C+, enriched suppressor cells obtained from spleens of 5-w.p.i. LP-BM5 mice of the indicated w.t. B6 or B6 knock-out strains. […] For the percent suppression calculation, first, the percent residual responsiveness (R) was calculated as follows: R=(cpm of co-cultured responder cells and experimental suppressor cells)[…](cpm of co-cultured responder cells and control, non-infected suppressor cells)×100%. Standard deviations of the mean were determined for triplicate wells, and were statistically compared by the two-tailed, two sample equal variance, Student T test. […]
This example relates to the experiments in FIG. 5. […] The % suppression was calculated for both (A) and (B) by cpm responder 3H thymidine incorporation. […]

Ly6C+CD11b+ MDSCs [2] = experiment: 3H-thymidine proliferation assay: MDSC suppression of B-cell responsiveness, w.t. B6 responder spleen cells stimulated with α-CD40 and IL-4; settings: FIG. 2A; MDSCs pretreated one hour with 0.8 mM L-NMMA or 80 ug/ml α-VISTA (13F3); R:S 3:1; three days
Protocol: as §1

Ly6C+CD11b+ MDSCs [3] = experiment: 3H-thymidine proliferation assay: MDSC suppression of T-cell responsiveness, w.t. B6 responder spleen cells stimulated with Con A; settings: FIG. 2B, MDSCs pretreated with 0.8 mM L-NMMA or 80 ug/ml α-VISTA (13F3), R:S 3:1, three days
Protocol: as §1

[4] = test system: monocytic MDSCs (Ly6C+CD11b+); experiment: CFSE dilution proliferation assay of CD19+ B cells with monocytic MDSCs; settings: FIG. 4, w.t. MDSCs, CFSE labeled VISTA−/− responders
Protocol: CFSE dilution proliferation assays. Naïve responder splenocytes were labeled with 5.iM CFSE (Cell trace, CFSE proliferation Kit, Molecular Probes, Eugene, Oreg.) in PBS/0.5% BSA for 10 minutes at 37° C. followed by the addition of cold 10% FBS in RPM1 for 5 minutes on ice. After three cold 10% FCS/RPMI washes, cell cultures were set up in the same manner as that for the 3H-thymidine incorporation proliferation assays described above. On culture day 4, wells were stained with monoclonal antibody (mAb): ct-CD19-PerCP (Biolegend, San Diego, Calif.) and were analyzed on a FACSCalibur flow cytometer (BD bioscience, San Jose, Calif.).
This example relates to the experiments in FIG. 4. In these experiments purified monocytic MDSCs (Ly6C+CD11b+) from 5 week LP-BM5 infected mice of the indicated strains, show differing patterns of suppression of naïve VISTA−/− spleen cell proliferation as assessed by flow cytometry. CFSE labeled VISTA−/− responder cells were cultured for […] in the presence (+) or absence (−) of ct-CD40+ IL-4, and with or without monocytic MDSCs (a) (−); (b) (+) (grey shaded curves); (c) (+), W.t. MDSCs (in black open curves); (d) (+), DNMMA treated W.t. […] MDSCs; Cells from all cultures were stained at the termination of a four day incubation, with ct-CD19 fluorochrome conjugated mAb and CFSE dilution was also assessed by FACS. […]

Question: What does the source list for `CNC(=N)NCCC[C@H](N)C(=O)O` [LNMMA, NG-monomethyl-L-Arginine]?
Answer: extent of blocking of VISTA−/− MDSC suppression of B-cell responsiveness (Ly6C+CD11b+ MDSCs [1]; MDSC of VISTA−/− origin): ~100%; blocking of w.t. MDSC suppression of B-cell responsiveness (Ly6C+CD11b+ MDSCs [1]; w.t. MDSC): partially blocked; blocking of MDSC suppression of B-cell responsiveness (Ly6C+CD11b+ MDSCs [2]): ~50%; blocking of MDSC suppression of T-cell responsiveness (Ly6C+CD11b+ MDSCs [3]): essentially completely dependent on iNOS/NO; restoration of B-cell proliferation curve towards control B cells stimulated in absence of MDSCs (CFSE) [4]: partially restored
